Key:
[1] = target: T1, Progestogen Receptor of Rabbit's Uterus (Oryctolagus cuniculus, UniProt P06186); experiment: Progestogen receptor of rabbit's uterus, relative bond affinity (RBA); type: binding; conditions: vs tritiated Product R; for relative bond affinity (RBA), Progestogen, 2 H: incubation 2 H at 0° C.; for relative bond affinity (RBA), Progestogen, 24 H: incubation 24 H at 0° C.
T1 construct: The uteri were removed, weighed and homogenized at 0° C; from tissue; host or cells: uterus of estradiol-treated impubic rabbits, 105,000 g supernatant (cytosol)
T1 sequence (P06186 1-930): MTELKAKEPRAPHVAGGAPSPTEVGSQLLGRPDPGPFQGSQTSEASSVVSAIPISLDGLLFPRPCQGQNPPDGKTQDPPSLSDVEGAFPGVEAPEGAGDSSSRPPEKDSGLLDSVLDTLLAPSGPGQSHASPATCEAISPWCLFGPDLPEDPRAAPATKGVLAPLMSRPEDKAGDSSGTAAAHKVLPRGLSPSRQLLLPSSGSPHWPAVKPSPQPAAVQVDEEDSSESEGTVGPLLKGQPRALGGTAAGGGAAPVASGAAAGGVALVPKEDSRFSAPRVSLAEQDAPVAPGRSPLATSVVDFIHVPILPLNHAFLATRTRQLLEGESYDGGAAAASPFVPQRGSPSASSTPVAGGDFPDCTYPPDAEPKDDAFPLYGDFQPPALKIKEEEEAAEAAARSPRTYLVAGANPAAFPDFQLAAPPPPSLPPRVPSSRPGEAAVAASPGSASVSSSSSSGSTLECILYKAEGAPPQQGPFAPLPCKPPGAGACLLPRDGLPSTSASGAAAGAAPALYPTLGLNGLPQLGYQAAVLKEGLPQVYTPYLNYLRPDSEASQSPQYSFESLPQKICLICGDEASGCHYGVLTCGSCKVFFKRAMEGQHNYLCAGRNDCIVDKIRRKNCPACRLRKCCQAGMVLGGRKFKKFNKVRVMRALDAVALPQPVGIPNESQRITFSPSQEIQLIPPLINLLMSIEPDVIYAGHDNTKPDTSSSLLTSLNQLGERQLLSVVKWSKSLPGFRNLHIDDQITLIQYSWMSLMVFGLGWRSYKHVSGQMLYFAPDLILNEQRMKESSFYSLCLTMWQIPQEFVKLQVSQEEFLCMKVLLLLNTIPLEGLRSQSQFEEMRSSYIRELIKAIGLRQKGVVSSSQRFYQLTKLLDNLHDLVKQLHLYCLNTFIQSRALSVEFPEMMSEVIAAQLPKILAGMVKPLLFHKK
Description: Impubic rabbits weighing about 1 kg received a cutaneous application of […] of estradiol and 5 days after this treatment, the animals were killed. The uteri were removed, weighed and homogenized at 0° C., using a Potter teflon flask in a buffered TS solution (10 mM Tris, 0.25 M saccharose, HCl pH 7.4) (1 g of tissue per 50 ml of TS). The homogenate was then ultracentrifuged (105,000 g×90 min) at 0° C. The aliquots of the supernatant were incubated at 0° C. for a time t, with a constant concentration (T) of tritiated Product R (17,21-dimethyl-19-nor-Δ^4,9 -pregnadiene-3,20-dione) in the presence of increasing concentrations (0-2,500×10^-9 M) either of cold R, or of cold progesterone, or of cold product to be tested. The concentration of bound tritiated R (B) was then measured in each incubate by the technique of adsorption with carbon dextran.
(§1) The calculation of the relative bond affinity (RBA) was identical for both receptors.
(§2) The following 2 curves were drawn: the percentage of bound tritiated hormone B/T as a function of the logarithm of the concentration of the cold reference hormone and B/T as a function of the logarithm of the concentration of the cold tested product. The straight line of the equation [formula] was determined. B/T max=Percentage of bound tritiated hormone for an incubation of this tritiated hormone at the concentration (T).
(§3) B/T min=Percentage of the bound tritiated hormone for an incubation of this tritiated hormone at the concentration (T) in the presence of a large excess of cold hormone (2,500×10^-9 M).
(§4) The intersections of the straight line I50 and the curves enabled the concentrations of cold reference hormone (CH) and cold tested product (CX) which inhibited the bonding of the tritiated hormone on the receptor by 50% to be evaluated.
(§5) The relative bond affinity (RBA) of the tested product was determined by the equation: [formula]

[2] = target: T2, Glucocorticoid Receptor of Rat's Thymus (Rattus norvegicus, UniProt P06536); experiment: Glucocorticoid receptor of rat's thymus, relative bond affinity (RBA); type: binding; conditions: vs tritiated dexamethasone; for relative bond affinity (RBA), Glucocorticoid, 4 H: incubation 4 H at 0° C.; for relative bond affinity (RBA), Glucocorticoid, 24 H: incubation 24 H at 0° C.
T2 construct: The thymuses were removed and homogenized at 0° C; from tissue; host or cells: thymus of adrenalectomized male Sprague-Dawley rats, 105,000 g supernatant (cytosol)
T2 sequence (P06536 1-795): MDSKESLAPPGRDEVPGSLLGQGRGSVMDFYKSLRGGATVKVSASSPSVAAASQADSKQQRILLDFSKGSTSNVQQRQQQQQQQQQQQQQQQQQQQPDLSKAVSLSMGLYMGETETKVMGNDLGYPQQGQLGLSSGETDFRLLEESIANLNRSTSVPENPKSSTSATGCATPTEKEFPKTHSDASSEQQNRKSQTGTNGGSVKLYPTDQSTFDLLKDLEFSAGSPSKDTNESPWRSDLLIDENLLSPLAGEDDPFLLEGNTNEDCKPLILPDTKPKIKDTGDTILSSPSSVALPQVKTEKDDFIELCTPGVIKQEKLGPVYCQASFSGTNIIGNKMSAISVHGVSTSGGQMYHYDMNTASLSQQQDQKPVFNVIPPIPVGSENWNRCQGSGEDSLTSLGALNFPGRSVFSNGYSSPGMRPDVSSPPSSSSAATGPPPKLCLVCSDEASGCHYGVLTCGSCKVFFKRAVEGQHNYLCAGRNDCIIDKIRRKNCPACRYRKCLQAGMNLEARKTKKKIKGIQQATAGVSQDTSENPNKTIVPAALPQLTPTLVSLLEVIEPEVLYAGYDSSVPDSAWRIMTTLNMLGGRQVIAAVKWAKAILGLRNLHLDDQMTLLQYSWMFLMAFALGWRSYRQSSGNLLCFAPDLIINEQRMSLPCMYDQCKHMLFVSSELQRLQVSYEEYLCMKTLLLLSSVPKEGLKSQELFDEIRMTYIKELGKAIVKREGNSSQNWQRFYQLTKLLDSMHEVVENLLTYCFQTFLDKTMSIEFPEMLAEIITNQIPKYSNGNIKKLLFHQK
Description: Male Sprague-Dawley EOPS rats weighing 160 to 200 g were suprarenalectomized and 4 to 8 days after this removal, the animals were killed. The thymuses were removed and homogenized at 0° C. in a 10 mM Tris, 0.15M saccharose, 2 mM dithiothreitol, HCl pH 7.4 buffer using a Potter polytetra-fluoroethylene flask (1 g of tissue per 10 ml of TS). The homogenate was ultracentrifuged (105,000 g×90 min) at 0° C. and the aliquots of the supernatant were incubated at 0° C. for a time (t) with a constant concentration (T) of tritiated dexamethasone in the presence of increasing concentrations (0-2,500×10^-9 M)either of cold dexamethasone, or the cold product to be tested. The concentration of the bound tritiated dexamethasone (B) was measured in each incubate by the technique of adsorption with carbon dextran.
as §1, §2, §3, §4, §5

[3] = system: Thymocytes of suprarenalectomized rats; experiment: Antiglucocorticoid activity: tritiated uridine incorporation in thymocytes with dexamethasone; type: cell-based, rat; conditions: for inhibition at 1 µM / inhibition at 0.1 µM / inhibition at 0.01 µM: Rattus norvegicus, Thymocyte, 5.10^-8 M dexamethasone, 37° C., 3 hours, read-out: % inhibition of the effect of the Dexamethasone; for inhibition at 1 µM: product at 10^-6 M; for inhibition at 0.1 µM: product at 10^-7 M; for inhibition at 0.01 µM: product at 10^-8 M
Description: The technique used was derived from the method of Dausse et al, Molecular Pharmacology, Vol. 13, p. 948-955 (1977) ("the relationship between glucocorticoid structure and effects upon Thymocytes"), for the thymocytes of mice. Thymocytes of suprarenalectomized rats were incubated at 37° C. for 3 hours in a nutritive medium containing 5.10^-8 M of dexamethasone in the presence or not of a product to be studied at different concentrations. Tritiated uridine was added, and the incubation was continued for one hour. The incubates were cooled, treated with a 5% solution of trichloroacetic acid, filtered on Whatman GF/A paper and washed three times using a solution of 5% trichloroacetic acid. The radioactivity retained by the filter paper was determined.

| SMILES | relative bond affinity (RBA), Progestogen, 2 H [1] | relative bond affinity (RBA), Progestogen, 24 H [1] | relative bond affinity (RBA), Glucocorticoid, 4 H [2] | relative bond affinity (RBA), Glucocorticoid, 24 H [2] | inhibition at 1 µM [3] [%] | inhibition at 0.1 µM [3] [%] | inhibition at 0.01 µM [3] [%] | incorporation of tritiated uridine ([3]; effect of dexamethasone itself, in words) |
| --- | --- | --- | --- | --- | --- | --- | --- | --- |
| C=C1C[C@@]2(CC[C@H]3[C@@H]4CCC5=CC(=O)CCC5=C4[C@@H](c4ccc(N(C)C)cc4)C[C@@]32C)OC1=O [Example 1, γ-lactone of 11β-[4-(dimethylamino)phenyl] 21-methylene 19-nor 17α-Δ^4,9-pregnadiene-17β-ol-3-one-21-carboxylic acid] | 32 | 21 | 135 | 94 | 116 | 104 | 71 |  |
| C[C@@H]1C[C@H]2[C@@H]3CCC4=CC(=O)C=C[C@]4(C)[C@@]3(F)[C@@H](O)C[C@]2(C)[C@@]1(O)C(=O)CO [dexamethasone, reference compound] |  |  |  |  |  |  |  | decrease |
| C=C1C[C@@]2(CC[C@H]3[C@@H]4CCC5=CC(=O)CCC5=C4[C@@H](c4ccc(SC)cc4)C[C@@]32C)OC1=O [Example 3, γ-lactone of 11β-[4-(methylthio)phenyl]21-methylene 19-nor-17α-Δ^4,9-pregnadiene-17β-ol-3-one-21-carboxylic acid] |  |  |  |  | 133 | 69 | 24 |  |
| C=C1C[C@]2(CC[C@H]3[C@@H]4CCC5=CC(=O)CCC5=C4[C@@H](c4ccc(N(C)C)cc4)C[C@@]32C)OC1=O [Example 2, γ-Lactone of 11β-[4-(dimethylamino)phenyl]21methylene-19-nor 17β-Δ^4,9-pregnadiene-17α-ol-3-one-21-carboxylic acid] | 86 | 36 | 136 | 59 |  |  |  |  |
